For assay [1], the target named is Transcriptional enhancer factor TEF-3 (Homo sapiens, UniProt Q15561). Nature of the assay: Inhibition of GST-tagged recombinant TEAD4 (unknown origin) (217 to 434 residues) expressed in Escherichia coli BL21 (DE3) by fluorescence polarization assay. In general terms: Fluorescence polarisation rises when a labelled molecule tumbles more slowly, as on binding a larger partner.

Assay [2] in a line: Binding affinity to rat heart mitochondria CPT1 assessed as inhibition constant incubated for 3 to 6 mins by Liquid scintillation counting method.

This is an account of results in BindingDB's records for PubMed 38621327 (Hebei University).

Chain of Transcriptional enhancer factor TEF-3 (Q15561 whole entry, the tested form may be a part): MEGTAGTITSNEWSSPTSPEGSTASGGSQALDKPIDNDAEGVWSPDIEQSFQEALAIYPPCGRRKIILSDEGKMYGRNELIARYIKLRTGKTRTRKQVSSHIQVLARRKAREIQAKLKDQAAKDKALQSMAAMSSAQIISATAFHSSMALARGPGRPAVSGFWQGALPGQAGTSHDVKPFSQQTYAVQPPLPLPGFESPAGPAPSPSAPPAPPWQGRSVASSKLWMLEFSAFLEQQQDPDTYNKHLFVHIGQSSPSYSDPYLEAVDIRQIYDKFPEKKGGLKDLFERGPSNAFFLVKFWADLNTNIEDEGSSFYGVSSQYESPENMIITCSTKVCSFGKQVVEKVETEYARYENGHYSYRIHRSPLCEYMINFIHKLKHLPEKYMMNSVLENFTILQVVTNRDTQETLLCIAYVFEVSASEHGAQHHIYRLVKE

As a reminder, the EC50 is the midpoint of the concentration-response curve. Take `O=C(CCl)c1ccccc1Nc1cccc(C(F)(F)F)c1`: in assay [1], the EC50 was 5.9 µM. Broadly, the Ki is the dissociation constant of the complex between target and ligand, obtained from inhibition or displacement. For `CCCCCCCCCCCCCCC[C@]1(O)C[C@H](CC(=O)[O-])C[N+](C)(C)C1`, the inhibition constant Ki in assay [2] came to 2.8 µM.
